# Reference: US4738979A, “α2 -blocking derivatives of imidazole” (G. D. Searle & Co., priority 1985, dated 1988)
# Legend:
# α1 -adrenergic receptors = assay: binding to α1-adrenergic receptors on rat brain homogenates (3H-WB 4101); settings: 1.6 nM 3H-WB 4101
# Procedure: (§1) The activity of the compounds according to the invention with respect to binding of the α-adrenergic receptors was determined in vitro according to a method deriving from the works of B. R. Rouot et al., Life Sci., 25, 769 (1979) and of D. U'Prichard et al., Mol. Pharmacol., 13, 454 (1977). This method consists in measuring the binding to the receptor on rat brain homogenates, by marking by means of a specific tritriated ligand placed in competition with the product to be tested.
# (§2) In the presenct case the binding to the α1 -adrenergic receptors was measured by means of 1.6 nM of ^3 H-WB 4101 and the binding to the α2 -adrenergic receptors by means of 0.7 nM of ^3 H-p. aminoclonidine, the non-specific binding being determined by 1,000 nM of phentolamine. The results are given in Table II, column 3, and are expressed in terms of percentage of inhibition of the specific binding of 10^-7 molar compound concentration.
# (§3) (2) The specific binding is the total binding less the nonspecific
# (§4) binding. The total binding is the binding in the absence of nonradioactiv
# (§5) drug. The nonspecific binding is the binding in the presence of 1,000 nM
# (§6) of phentolamine. The products of the invention are tested at a
# (§7) concentration of 10^-7 molar.
# [1] = system: α2 adrenergic receptors of the central nervous system; assay: inhibition of the antihypertensive action of clonidine in spontaneously hypertensive rats (SHR); format: in vivo, rat; settings: 1 mg/kg p.o., clonidine 50 μg/kg s.c.
# Procedure: In the first study, carried out upon unanaesthetized spontaneously hypertensive rats (SHR rats), the ability of the compounds of the present invention to inhibit the antihypertensive action of clonidine was determined.
# The antihypertensive activity of clonidine results from an interaction with α2 adrenergic receptors of the central nervous system, i.e., central antihypertensive actions.
# In this test, two groups of SHR rats are utilized as follows. In the first group, prior to subcutaneous administration of clonidine (50 μg/kg), the SHR rats are treated with the compound to be tested (1 mg/kg p.o.) dissolved in a saline vehicle. The second group (control group) of SHR rats are treated with the saline vehicle only, prior to subcutaneous administration of clonidine.
# The arterial pressure is measured in the region of the median coccygeal artery according to the method of J. Roba, A. F. DeSchaepdrijver, Exp. Anim., 4, 147-162 (1971).
# The results of this assay summarized in Table II, column 5, are expressed as a percentage of inhibition of the effect of clonidine.
# α2 -adrenergic receptors [2] = target: T1, α2 -adrenergic receptors (Rattus norvegicus, UniProt P22909); assay: binding to α2-adrenergic receptors on rat brain homogenates (3H-p. aminoclonidine); settings: 10^-7 M; rat brain homogenates; 0.7 nM 3H-p. aminoclonidine; read-out: % Inhibition of the Specific Binding at 10^-7 M for α2 Recep.
# T1 construct: from tissue; host or cells: rat brain homogenates
# T1 sequence (P22909 1-465): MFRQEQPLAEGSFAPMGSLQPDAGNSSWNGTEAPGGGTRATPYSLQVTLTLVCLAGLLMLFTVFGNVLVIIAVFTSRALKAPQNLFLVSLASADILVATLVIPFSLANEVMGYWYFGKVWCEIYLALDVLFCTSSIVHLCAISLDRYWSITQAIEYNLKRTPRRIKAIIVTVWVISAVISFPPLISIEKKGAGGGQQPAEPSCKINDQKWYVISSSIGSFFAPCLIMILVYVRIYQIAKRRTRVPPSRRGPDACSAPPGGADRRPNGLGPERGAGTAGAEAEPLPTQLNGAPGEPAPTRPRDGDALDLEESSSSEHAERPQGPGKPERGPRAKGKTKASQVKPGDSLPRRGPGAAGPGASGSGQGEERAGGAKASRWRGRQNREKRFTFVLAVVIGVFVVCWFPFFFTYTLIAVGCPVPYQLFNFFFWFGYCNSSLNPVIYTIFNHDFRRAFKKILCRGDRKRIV
# Procedure: as §1, §2, §3, §4, §5, §6, §7
# [3] = system: bicuculline-induced tonic extension in mice; assay: protection against bicuculline-induced tonic extension in mice; format: in vivo; settings: Mus musculus, iv, 3 hours prior to bicuculline 0.7 mg/kg i.v., read-out: Anticonvulsive effect (versus Bicuculline) (% Protection)
# Procedure: In the second study the anti-convulsant effect of the compounds of the present invention was examined in two seizure models; bicuculline-induced tonic extension in mice and 3-mercaptopropionic acid (3-MPA)-induced tonic extension in mice.
# In the bicuculline study, the ability of the compounds of the present invention to protect against tonic extension (involving rigidity) was evaluated as follows. Each test compound was administered to a group of ten mice at a dose of 10 mg/kg, 3 hours prior to the i.v. administration of bicuculline (0.7 mg/kg). Anticonvulsant activity in this test is expressed as percentage of animals tested. The results are given in Table II, column 6, and indicate that several compounds display significant anticonvulsive activity in this test. The anticonvulsant effect of the compounds has also been tested with respect to the tonic extension induced by 3-mercaptopropionic acid (120 mg/kg subcutaneously) in mice.
# α2 -adrenergic receptors [4] = target: T2, α2 -adrenergic receptors (Cavia porcellus, UniProt Q60474); assay: α2 antagonist and α2 agonist activity in isolated guinea pig ileum (clonidine)
# T2 construct: from tissue; host or cells: isolated guinea pig ileum
# T2 sequence (Q60474 1-464): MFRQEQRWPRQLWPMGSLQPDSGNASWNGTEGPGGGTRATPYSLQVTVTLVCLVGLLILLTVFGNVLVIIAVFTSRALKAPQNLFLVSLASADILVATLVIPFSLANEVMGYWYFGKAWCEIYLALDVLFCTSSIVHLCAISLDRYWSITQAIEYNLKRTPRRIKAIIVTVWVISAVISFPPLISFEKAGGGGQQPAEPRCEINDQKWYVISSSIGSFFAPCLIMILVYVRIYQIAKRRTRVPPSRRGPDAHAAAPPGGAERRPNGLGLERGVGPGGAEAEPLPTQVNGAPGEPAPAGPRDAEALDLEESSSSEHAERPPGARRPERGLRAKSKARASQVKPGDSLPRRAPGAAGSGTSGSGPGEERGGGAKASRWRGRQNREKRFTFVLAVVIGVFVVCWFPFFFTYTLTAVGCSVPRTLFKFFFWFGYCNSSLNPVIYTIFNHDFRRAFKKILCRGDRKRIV
# Procedure: The α2 antagonist and α2 agonist activity of the compounds according to the invention was determined upon isolated organs according to a model described by G. M. Drews, Br. J. Pharmaco., 64, 293-300 (1978).
# This model is based upon the principle that the stimulation of the cholinergic nervous transmissions of the guinea pig ileum causes the liberation of acetyl choline, which in turn causes contractions of the ileum.
# The stimulation of the α2 -adrenergic receptors inhibits the activity of the cholinergic nerve and consequently reduces all response resulting from a timulation of the latter. Thus the contractions of the ileum induced by electric stimulation of the tissue are inhibited by clonidine, an α2 agonist, in proportion to the dose. This inhibition is specifically displaced by the α2 antagonists and not by the α1 antagonists.
# The method utilized can be summarized as follows: three dose-response curves to clonidine are established at an interval of 60 minutes. Two concentrations of the product to be tested are added successively 10 minutes before the realization of the second and third clonidine curves. Next, after washing, a dose-response curve is established with the product to be tested.
# The dose-response curves are calculated as a percentage of the maximum inhibition obtained for the first curve. In this system the products having an α2 antagonist activity displace the dose-response curve to clonidine. The α2 antagonist activity, expressed in pA2 value, shown in column 4, is calculated according to J. M. Van Rossum, Arch. Int. Pharmacodyn., 143, 299-300 (1963).
# A reduction of the contractions induced by the tested product alone indicates an α2 agonist effect. This activity is expressed in--log ED50 (the--logarithm of the concentration of the product giving 50% of the maximum inhibition obtained with clonidine).
# The higher the pA2 value, the higher the α2 antagonist activity; the higher the--log ED50 value (i.e., the pA2 agonist activity), the higher the α2 agonist activity.
# [5] = acute toxicity after oral administration to mice (LD50); settings: mouse, in vivo, 15 days mortality
# Procedure: The acute toxicity of the compounds of the present invention was studied after oral administration to mice. The products to be tested, suspended in a 1% tragacanth gum mucilage, were administered by means of an intragastric probe to groups of three male mice which had fasted since the preceding day. The doses tested are a function of the effect observed and can vary from 3,000 to 3 mg/kg or less. The mortality was recorded for 15 days. The lethal dose for 50% of the animals (LD50) was calculated according to the method of J. Litchfield and F. Wilcoxon, J. Pharmacol. Exp. Ther., 96, 99 (1949) and expressed in mg/kg. The effect of the products on the behaviour of the animals is observed until 5 to 6 hours after the treatment indicated above and after 24 hours, using a method derived from that of S. Irwin, described by R. A. Turner, Screening Methods in Pharmacology, Chapter 3, pages 22-34, Academic Press, 1965. If anomalies are noted, the observation is prolonged and smaller doses are tested.
Compound,% Inhibition of the Specific Binding at 10^-7 M for α1 Recep. (α1 -adrenergic receptors) [%],α2 Antagonist (% Inhibition of the Antihypertension of Clonidine) [1] [%],inhibition at 0.1 µM (α2 -adrenergic receptors [2]) [%],responders at 10 mg/kg [3] [%],"EC50 (α2 -adrenergic receptors [4]; 50% of maximum inhibition obtained with clonidine, read-out: α2 Agonist Activity (-log ED50) (converted)) [nM]","Kb (α2 -adrenergic receptors [4]; versus clonidine, read-out: α2 Antagonist Activity (pA2) (converted)) [nM]",LD50 at 360 h [5] [mg/kg]
"CC(=C(c1ccccc1)c1ccccc1)c1c[nH]cn1 [Compound 2, 4(5)-[(2,2-diphenyl-1-methyl)ethenyl]imidazole]",3,71,43,20,2510,50.1,–
OC(c1c[nH]cn1)C(c1ccccc1)c1ccccc1 (stereo not shown) [Compound 5],3,24,2,30,–,–,> 300
COC(c1c[nH]cn1)C(c1ccccc1)c1ccccc1 (stereo not shown) [Compound 6],0,62,0,30,–,–,–
c1ccc(C(Cc2c[nH]cn2)(c2ccccc2)c2ccccc2)cc1 [Compound 8],0,28,0,20,–,–,1.75
C(=C(c1ccccc1)c1ccccc1)c1c[nH]cn1 [Compound 11],6,48,9,40,–,–,–
"CCCC(=C(c1ccccc1)c1ccccc1)c1c[nH]cn1 [Compound 18, 4(5)-[(2,2-diphenyl-1-n.propyl)-ethenyl]-imidazole]",0,47,0,50,–,–,270
"CCCC(c1c[nH]cn1)C(c1ccccc1)c1ccccc1 (stereo not shown) [Compound 19, 4(5)-[2-(1,1-diphenyl)pentyl]imidazole]",4,75,15,40,–,–,350
"CCCC(OC)(c1c[nH]cn1)C(c1ccccc1)c1ccccc1 (stereo not shown) [Compound 20, 4(5)-[2-(1,1-diphenyl-2-methoxy)-pentyl]imidazole]",0,62,6,60,–,–,> 300
"Cc1nc(CC(c2ccccc2)c2ccccc2)c[nH]1 [Compound 25, 4(5)-(2,2-diphenylethyl)-2-methylimidazole]",0,87,3,10,–,–,–
COC(c1c[nH]c(C)n1)C(c1ccccc1)c1ccccc1 (stereo not shown) [Compound 26],1,–,2,10,–,–,350
O=C(O)c1ccccc1C(Cc1c[nH]cn1)c1ccccc1 (stereo not shown) [Compound 30],12,–,1,–,–,–,> 300
COC(=O)c1ccccc1C(Cc1c[nH]cn1)c1ccccc1 (stereo not shown) [Compound 31],13,–,20,–,–,–,–
